Source: US20210369677A1, “SMALL MOLECULE ACTIVATORS OF POLYCYSTIN-2 (PKD2) AND USES THEREOF” (Northwestern University, priority 2020, published 2021)

Biological target: T1, polycystin-2 (Homo sapiens, UniProt Q13563)
T1 construct: expressed in transfected cells
T1 sequence (Q13563 1-968): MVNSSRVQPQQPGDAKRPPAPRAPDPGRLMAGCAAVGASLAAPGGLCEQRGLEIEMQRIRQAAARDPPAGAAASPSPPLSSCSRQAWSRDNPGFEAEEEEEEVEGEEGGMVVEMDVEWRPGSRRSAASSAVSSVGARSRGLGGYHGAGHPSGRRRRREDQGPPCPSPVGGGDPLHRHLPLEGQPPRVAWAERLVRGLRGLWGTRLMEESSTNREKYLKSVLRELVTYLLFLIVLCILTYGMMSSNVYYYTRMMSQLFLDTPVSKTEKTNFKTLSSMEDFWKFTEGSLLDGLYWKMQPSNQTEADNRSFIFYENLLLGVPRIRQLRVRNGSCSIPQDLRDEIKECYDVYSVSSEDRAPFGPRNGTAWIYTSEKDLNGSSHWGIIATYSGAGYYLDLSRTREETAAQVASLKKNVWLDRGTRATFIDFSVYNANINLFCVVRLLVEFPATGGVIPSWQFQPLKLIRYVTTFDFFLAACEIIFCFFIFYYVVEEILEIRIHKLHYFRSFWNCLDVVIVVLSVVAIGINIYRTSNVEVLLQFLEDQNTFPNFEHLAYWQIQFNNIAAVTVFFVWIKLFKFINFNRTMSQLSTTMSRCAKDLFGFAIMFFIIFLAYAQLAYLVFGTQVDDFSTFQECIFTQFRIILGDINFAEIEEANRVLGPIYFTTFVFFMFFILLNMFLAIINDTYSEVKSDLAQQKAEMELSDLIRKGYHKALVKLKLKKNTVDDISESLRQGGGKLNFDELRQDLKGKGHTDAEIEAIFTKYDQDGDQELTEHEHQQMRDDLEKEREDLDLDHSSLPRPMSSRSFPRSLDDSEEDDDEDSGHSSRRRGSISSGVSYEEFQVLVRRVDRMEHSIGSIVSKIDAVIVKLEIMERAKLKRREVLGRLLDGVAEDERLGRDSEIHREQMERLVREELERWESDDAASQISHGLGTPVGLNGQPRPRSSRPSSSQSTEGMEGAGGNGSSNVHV
Type: cell-based
Details: for Effect of external disulfide reducing agents on wild type polycystin-2 current: whole cilia configuration
Source text: Generation of HEK PKD2^Null cells line and the stable expression PKD2 variants. To generate the HEK PKD2^Null cell lines, we used a CRISPR/Cas9 gene editing kit available from Addgene (kit 1000000055). HEK 293 cells were electro-transfected with sgRNAs (caccg[…] and aaac[…]c) with the All-in-one Cas9 plasmid. […] Cells generated from single cell clones were selected after 4 weeks of expansion in a 96-wells plate. […] To generate the WT and variant PKD2 GFP or mCherry C-terminally tagged variant cell lines, the hPKD gene was subcloned into lentiviral pLVX-mcherry-N1 (Clontech) or pLVX-GFP-N1 (Clontech) vector using the Gibson assembly method. A linker encoding for six glycine residues was added between the PKD2 gene and the C-terminal tags, and missense variants were generated using standard, site-directed mutagenesis. The third-generation lentiviral packaging plasmids used for stable expression contained: pMDLg/pRRE (Addgene), […] pRSV-Rev (Addgene), and envelope expressing plasmid pMD2.G (Addgene). LentiX-293T cells (Takara) were transfected with polyethylineimine (Polysciences) at a 4:1:1:1 ratio of the transgene and viral packaging constructs. Supernatants were collected 48 and 72 hours post transfection and filtered through a 0.45 μm syringe filter. Lentiviral supernatant was concentrated 100 times using 1 volume of PEG-it (System Biosciences) virus precipitation solution and 4 volume of lentivirus-containing supernatant. The PEG-it and supernatant mixture were kept at 4 degrees for 24 hours and centrifuged at 1500 rpm for 30 minutes. The pellet containing lentivirus was resuspended with 1/100th volume of PBS of the original supernatant volume. HEK cells were infected with the lentivirus supernatant; PKD2-GFP or PKD2-mCherry expression was selected using culture media containing puromycin (2 μg/ml) for 30 to 90 days. Cells were then fluorescence-activated cell sorted (BD FacsMelody) at 5000 to 10,000 counts per minute to enrich for the transgene expression. Stable cell lines were cultured in Dulbecco's modified essential medium (DMEM) supplemented with 10% fetal bovine serum (FBS) and 100 units/ml penicillin, 100 units/ml streptomycin and 1 μg/ml puromycin selection antibiotic.
Electrophysiology. Ciliary ion currents were recorded using borosilicate glass electrodes polished to resistances of 14-22 MΩ using the cilium patch method previously described^32. Whole cell electrodes used to measure poly cystin-2L1 currents were fire polished to 1.5-4 MΩ resistances. Unless otherwise stated, whole cilia ionic currents were recorded in symmetrical [Na^+]. The pipette standard internal solution contained (in mM): 90 NaMES, 10 NaCl, 10 HEPES, 10 Na4-BAPTA (Glycine, N, N′-[1,2-ethanediylbis(oxy-2,1-phenylene)]bis[N-(carboxymethyl)]-,tetrasodium); pH was adjusted to 7.3 using NaOH. Standard bath solution contained 140 NaCl, 10 HEPES, 1.8 CaCl2); pH 7.4. All solutions were osmotically balanced to 295 (±6) mOsm with mannitol. Extracellular solutions containing TCEP and GSH were used within six hours of formulation. Data were collected using an Axopatch 200B patch clamp amplifier, Digidata 1440A, and pClamp 10 software. Whole-cilium and excised patch currents were digitized at 25 kHz and low-pass filtered at 10 kHz. In the whole cilium configuration, the holding potential was −60 mV and then depolarized using a 400 ms voltage ramp from −100 mV to 100 mV. The whole cell recordings of polycystin-2L1 currents were either activated by the same ramp protocol or by 100 ms depolarizations to 100 mV from a −100 mV holding potential.

Compound | Effect of external disulfide reducing agents on wild type polycystin-2 current | Block of ciliary WT polycystin-2 currents by trivalent ions (10 μM, voltage ramps)
N[C@@H](CCC(=O)N[C@@H](CS)C(=O)NCC(=O)O)C(=O)O [GSH, reduced glutathione] | near instantaneous reduction | –
O=C(O)CCP(CCC(=O)O)CCC(=O)O [TCEP, tris-2-carboxyethyl phosphine] | near instantaneous reduction | –
[Gd] [gadolinium] | – | blocked
